The values below come from the NIST ThermoML archive (doi:10.1016/j.fluid.2010.06.007).

± gives the expanded uncertainty stated by the source.

For the series the following is noted: 298.15 K; 101.33 kPa; Liquid; Vibrating tube method.

Regarding `C1CCCCC1` [cyclohexane], the molar volume worked out at 0.0001088 ± 5e-08 m3/mol.
Consider `C1CCOC1` [tetrahydrofuran], for which the molar volume amounted to 8.174e-05 ± 4e-08 m3/mol.
Consider `ClC(Cl)Cl` [trichloromethane], for which the molar volume is reported as 8.071e-05 ± 4e-08 m3/mol.
